Experimental data from ChEMBL document CHEMBL4152293, “Synthesis and biological evaluation of podophyllotoxin derivatives as selective antitumor agents” (Eur J Med Chem, 2018).

Columns and labels:
A549 [1] = assay: Cell cycle arrest in human A549 cells assessed as accumulation at G0/G1 phase at 5 nM after 72 hrs by propidium iodide staining-based flow cytometric method (reference value: 61.29%); type: functional
A549 [2] = assay: Induction of apoptosis in human A549 cells after 72 hrs by annexin V-FITC/propidium iodide staining-based flow cytometric method; type: functional, cell-based
A549 [3] = assay: Induction of apoptosis in human A549 cells assessed as necrotic cells at 100 nM after 72 hrs by annexin V-FITC/propidium iodide staining-based flow cytometric method (reference value: 0.1%); type: functional
L02 [4] = assay: Cell cycle arrest in human L02 cells assessed as accumulation at G0/G1 phase at 5 nM after 72 hrs by propidium iodide staining-based flow cytometric method (reference value: 57.34%); type: ADME; settings: l02, 72 h, 0.005 µM
A549 [5] = assay: Cell cycle arrest in human A549 cells assessed as accumulation at S phase at 10 nM after 72 hrs by propidium iodide staining-based flow cytometric method (reference value: 24.48%); type: functional
A549 [6] = assay: Induction of apoptosis in human A549 cells assessed as viable cells at 10 nM after 72 hrs by annexin V-FITC/propidium iodide staining-based flow cytometric method (reference value: 92.8%); type: functional; settings: A549, 72 h, read-out: Activity
A549 [7] = assay: Induction of apoptosis in human A549 cells assessed as early apoptotic cells at 200 nM after 72 hrs by annexin V-FITC/propidium iodide staining-based flow cytometric method (reference value: 3%); type: functional
L02 [8] = assay: Induction of apoptosis in human L02 cells assessed as necrotic cells at 10 nM after 72 hrs by annexin V-FITC/propidium iodide staining-based flow cytometric method (reference value: 0%); type: cell-based; settings: l02, 72 h, 0.01 µM
A549 [9] = assay: Cell cycle arrest in human A549 cells assessed as accumulation at G2/M phase at 5 nM after 72 hrs by propidium iodide staining-based flow cytometric method (reference value: 14.23%); type: functional
[10] = Induction of apoptosis in human L02 cells assessed as viable cells at 100 nM after 72 hrs by annexin V-FITC/propidium iodide staining-based flow cytometric method (reference value: 96.3%); type: cell-based; settings: read-out: Activity
A549 [11] = assay: Cell cycle arrest in human A549 cells assessed as accumulation at S phase at 5 nM after 72 hrs by propidium iodide staining-based flow cytometric method (reference value: 24.48%); type: functional
L02 [12] = assay: Cell cycle arrest in human L02 cells assessed as accumulation at S phase at 10 nM after 72 hrs by propidium iodide staining-based flow cytometric method (reference value: 25.78%); type: ADME; settings: l02, 72 h, 0.01 µM
L02 [13] = assay: Induction of apoptosis in human L02 cells assessed as early apoptotic cells at 100 nM after 72 hrs by annexin V-FITC/propidium iodide staining-based flow cytometric method (reference value: 2%); type: cell-based; settings: l02, 72 h, 0.1 µM
A549 [14] = assay: Induction of apoptosis in human A549 cells assessed as necrotic cells at 10 nM after 72 hrs by annexin V-FITC/propidium iodide staining-based flow cytometric method (reference value: 0.1%); type: functional
L02 [15] = assay: Induction of apoptosis in human L02 cells assessed as late apoptotic cells at 100 nM after 72 hrs by annexin V-FITC/propidium iodide staining-based flow cytometric method (reference value: 1.6%); type: cell-based; settings: l02, 72 h, 0.1 µM

SMILES: COc1cc([C@@H]2c3cc4c(cc3[C@H](OC(=O)CN(C)C(=O)OC(C)(C)C)[C@H]3COC(=O)[C@H]23)OCO4)cc(OC)c1OC
- Activity (A549 [1]): 60.2%
- Activity (A549 [2]): Dose-dependent effect
- Activity (A549 [3]): 0%
- Activity (L02 [4]): 62.19%
- Activity (A549 [5]): 27.26%
- viability at 0.01 µM (A549 [6]): 87.8%
- Activity (A549 [7]): 92.8%
- Activity (L02 [8]): 0%
- Activity (A549 [9]): 13.74%
- viability at 72 h, 0.1 µM [10]: 87.3%
- Activity (A549 [11]): 26.07%
- Activity (L02 [12]): 24.59%
- Activity (L02 [13]): 10.6%
- Activity (A549 [14]): 0%
- Activity (L02 [15]): 2.1%
